Results reported in US8791132B2, “Compounds and methods for treatment of hypertension” (Medivation Technologies, Inc., priority 2011, dated 2014).

How the values were obtained:
[1] = system: SH-SY5Y cells; experiment: Cell viability (MTS reduction) in 4-Br-A23187-treated SH-SY5Y cells; format: cell-based; details: MTS reduction capacity; 4-Br-A23187 2 μM, 24 h; compounds at 10 nM
Procedure: (§1) After 24 h, cells were depleted from FBS and kept in culture for 24 h before the experiment. Cells were then treated with 4-Br-A23187 (2 μM), hydrogen peroxide (300 μM) or the mitochondrial toxin rotenone (25 μM) in the presence of vehicle or Compound of the Invention for 24 h. Cell death was determined by measurements of LDH release according to the Cytotoxicity Detection KitPlus (Roche, Mannheim, Germany). Cell viability was determined by measuring the capacity of cells to metabolize MTS tetrazolium (MTS) according to the Cytotoxicity Detection KitPlus (Roche, Mannheim, Germany) and MTS reduction is assessed by the CellTiter 96® AQueous One Solution Cell Proliferation assay (Promega Corporation, Madison, Wis., USA). Compounds were screened at 10 nM, using DMSO as vehicle. Assay results for the experiments with hydrogen peroxide are presented as the LDH release (cell death) of untreated cells (control), hydrogen peroxide-treated cells (vehicle), and co-incubation of hydrogen peroxide with Compounds of the Invention treated cells normalized to the vehicle (FIG. 17A). This assay assesses the ability of the test compounds to protect against cell death that is mediated by mitochondrial dysfunction. In the assay, the calcium ionophore 4-Br-A23187 is used to challenge the cells, causing calcium levels to rise in mitochondria, which leads to depolarization and cell death. Test compounds are assessed for their ability to prevent cell death in response to challenge with 4-Br-A23187.

[2] = system: healthy dogs; experiment: Blood pressure in healthy beagle dogs (telemetry); format: in vivo, dog
Description: (§2) Four adult beagle dogs of both sex and weighted around 10 kg were chosen for the acute studies after a preliminary qualitative electrocardiogram/ECG, clinical pathology and physical examination. Upon arrival at the laboratory, the dogs were weighed and acclimated for a period of one week. Lab Diet certified canine diet #5007, PMI Nutrition International Inc was made available ad libitum to all dogs except during fasting periods. The dogs were surgically implanted with a pressure transducer equipped telemetry transmitter under sodium pentobarbitone anesthesia. The transmitter assembly was secured internally, the fluid-filled catheter was placed into an appropriate artery.
(§3) In the acute studies, the test compounds 3b and 5b at different doses (dosing sequences provided in Table B7 for compound 3b and Table B8 for compound 5b) was administered by oral gavage, 30 minutes prior to intravenous dexmedetomidine (5 μg/kg) challenge. Dexmedetomidine administration was enabled by prior placement of a peripheral intravenous line. The same four dogs were received all four treatments in the order noted in the table below, with at least a 3-day washout period between treatments.
In another acute study with compound 41a, the test agent was administered a dose of 6 mg/kg by oral gavage to 4 healthy dogs; and the blood pressure monitored for a period of 4 hours.
(§4) For the chronic study mode (see Table B9), the test compound 3b at 3 doses was administered by oral gavage once on day 1 and then twice/day on days 2 to 14, and finally once on day 15. The dexmedetomidine was administered on day-4 to check its effectiveness in inducing blood pressure, and once following the morning dose of compound 3b or vehicle on days 2, 7 and 14. Blood pressure and heart rate data were collected 1 h prior & 4 h post-morning dose on days 1, 2, 7, 14 and 15 to allow the appropriate data comparisons. Blood aliquots were saved at 4 h post-morning dose for exposure determination.
In both acute and chronic studies, dogs were weighed before dosing. Cardiovascular evaluations at each dose of test compound were collected with animals gently restrained in a sling. Dogs were placed in the sling at least 1 hour prior to dose administration, and after at least 30 minutes of stable baseline data collection. The dogs were monitored continuously for 3-4 hours subsequent to test compound administration and summarized in 5-minute bins. The systolic blood pressure was collected.

[3] = system: dexmedetomidine induced dogs; experiment: Dexmedetomidine (DEX) induced beagle dog model of hypertension; format: in vivo
Description: as §2, §3, §4
In both acute and chronic studies, dogs were weighed before dosing. Cardiovascular evaluations at each dose of test compound were collected with animals gently restrained in a sling. […] The dogs were monitored continuously for 3-4 hours subsequent to test compound administration and summarized in 5-minute bins. […]

[4] = system: SH-SY5Y cells; experiment: Cell death (LDH release) in hydrogen peroxide-treated SH-SY5Y cells; format: cell-based; details: LDH release normalized to vehicle (=100); hydrogen peroxide 300 μM, 24 h; compounds at 10 nM
Procedure: as §1, with “SH-SY5Y cells cultured in DMEM/F12 media supplemented with 10% FBS were seeded in 96-well microplates at 150,000 cells/cm^2. After” for “After”

[5] = target: T1, human Adrenergic a2A receptor (Homo sapiens, UniProt P08913); experiment: Inverse agonist activity, GTPg35S binding functional assay (FAST-006G); format: biochemical; details: dose-response, duplicates (FIG. 28)
T1 construct: purchased Euroscreen FAST-006G
T1 sequence (P08913 1-465): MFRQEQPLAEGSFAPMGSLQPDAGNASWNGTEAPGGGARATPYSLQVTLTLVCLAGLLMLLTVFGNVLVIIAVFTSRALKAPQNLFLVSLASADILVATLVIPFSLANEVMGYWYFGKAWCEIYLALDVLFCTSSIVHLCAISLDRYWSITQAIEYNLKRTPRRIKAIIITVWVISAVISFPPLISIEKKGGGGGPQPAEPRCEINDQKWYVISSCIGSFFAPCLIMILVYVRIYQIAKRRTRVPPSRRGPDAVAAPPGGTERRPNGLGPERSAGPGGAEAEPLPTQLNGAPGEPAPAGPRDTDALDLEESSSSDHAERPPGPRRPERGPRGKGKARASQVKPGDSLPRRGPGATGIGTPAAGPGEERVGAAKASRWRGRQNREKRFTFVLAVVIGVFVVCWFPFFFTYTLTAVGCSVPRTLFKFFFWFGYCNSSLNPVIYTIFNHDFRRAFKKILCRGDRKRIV
Procedure: SPA 35S-GTPgS and Radioligand Binding experiments were conducted with Euroscreen membrane preparations. Compound was tested for inverse agonist activity at the human Adrenergic a2A receptor using GTPg35S binding functional assay (FAST-006G) in dose-response and in duplicates.

[6] = dexmedetomidine (5 μg/kg i.v.) induced dogs, acute studies, oral gavage 30 min before challenge

Cc1ccc2c(c1)c1c(n2CC(O)c2ccncc2)CCN(C)C1 (single isomer, unassigned) [3b]
Relative cell viability protection [1]: 0.3673
systolic blood pressure ([2]; acute studies, oral gavage): dose-dependently reduced systolic blood pressure
systolic blood pressure ([2]; chronic study, oral, day 1 and 15): dose dependently reduced systolic blood pressure
systolic blood pressure [3, 6]: dose-dependently reduced systolic blood pressure
systolic blood pressure ([3]; dexmedetomidine induced dogs, chronic study, oral b.i.d., day 2, 7 and 14): dose dependently reduced systolic blood pressure
LDH release (cell death), relative to vehicle [4]: 86.70

CN1CCc2c(c3cc(Cl)ccc3n2CC(O)c2ccncc2)C1 (single isomer, unassigned) [4a]
LDH release (cell death), relative to vehicle [4]: 81.64

Cc1ccc2c(c1)c1c(n2CC(C)(O)c2cccnc2)CCN(C)C1 (single isomer, unassigned) [5b, 1-(1,2,3,4-tetrahydro-2,8-dimethylpyrido[4,3-b]indol-5-yl)-2-(pyridin-3-yl)propan-2-ol]
Relative cell viability protection [1]: 0.3748
systolic blood pressure ([2]; acute studies, oral gavage): dose-dependently reduced systolic blood pressure
systolic blood pressure [3, 6]: dose-dependently reduced systolic blood pressure
LDH release (cell death), relative to vehicle [4]: 73.73

Cc1ccc2c(c1)c1c(n2CC(O)c2ccncc2)CCNC1 (single isomer, unassigned) [39a, 2-(8-methyl-1,2,3,4-tetrahydro-pyrido[4,3-b]indol-5-yl)-1-pyridin-4-yl-ethanol]
LDH release (cell death), relative to vehicle [4]: 82.94

CN1CCc2c(n(CC(O)c3ccncc3)c3ccc(Cl)cc23)C1 (single isomer, unassigned) [41a]
heart rate ([2]; 6 mg/kg oral gavage): slight decrease or neutral effect
systolic blood pressure ([2]; acute studies, oral gavage): robust and long lasting reduction in systolic blood pressure

Cc1ccc2c(c1)c1c(n2CC(O)c2ccncc2)CCN2CCCC12 (single isomer, unassigned) [129d]
inverse agonist activity [5]: showed inverse agonist activity
